# Test results reported in US20090023784A1, “USE OF DEFERIPRONE AND METHODS TO TREAT AND/OR PREVENT FRIEDREICH ATAXIA RESULTING FROM INTRACELLULAR MISHANDLING OF IRON” (priority 2006, published 2009).
# Tests used:
# [1] = Serum deferiprone time-concentration profile (HPLC) in the 52-week monkey study; format: in vivo, cynomolgus monkeys; settings: 75 mg/kg twice daily
# Protocol: Groups of 4 male and 4 female monkeys (2 to 3 years old) were dosed by nasogastric intubation at (0.5% w/v aqueous carboxymethylcellulose vehicle) 75 mg/kg deferiprone twice daily (bid), with 6-8 hours between doses, for at least 364 days.
# Clinical signs, body weights and food intake were assessed at frequent intervals. Ophthalmological and cardiovascular examinations were carried out in Weeks 17, 30, 43, 56 and 60. Hematology, coagulation, clinical chemistry and urine parameters were measured at baseline and in Weeks 8, 16, 30, 41, 56 and 60. Blood samples were taken on the first day of dosing, and in Weeks 17 and 56 for assessment of the serum deferiprone time-concentration profile. A full necropsy was performed on each animal, selected organs weighed, and histopathological examination of abnormalities and selected tissues conducted.
# [2] = test system: iron accumulation in dentate nuclei; assay: MRI R2* measurement of brain iron in the pilot trial; format: in vivo, human; settings: 20-30 mg/kg/day oral, patients before 17.4±1.6, controls 13.7±0.6
# Description: Multiple-gradient echo sequence was used to monitor the iron concentrations in the brain (Waldvogel et al. Increased iron in the dentate nucleus of patients with Friedrich's ataxia. Ann Neurol 1999; 46:123-5), using a 1.5T Signa unit (GE Medical Systems, Milwaukee, Wisc., USA) using phase array head coil. Deep gray structures were localized by using a T2*-weighted echo-planar sequence (TR 3000 ms, TE 60 ms, eight averages, field of view: 24 cm, 256×224 matrix and slice thickness : 5 mm, 24 slices/1.1 min). A voxel englobing the left and right nuclei was positioned on the largest section of dentate nuclei (dimensions 6×3×2 cm^3). Data acquisition allowing iron monitoring was performed by using a single-slice multi-gradient-echo sequence (TR: 400 ms, flip angle: 50° to maximize gray matter signal, acquisition time: 3 minutes).
# The determination of R2* was performed by using data of the multi-gradient echo sequence. In each pixel, the signals Si of the ten images obtained at echo times TEi (−i=1.10) were used to calculate the parameter R2* by adjustment of the signal decay according to the equation Si=So.exp (−R2*.TEi). A parametric image of local R2* values was calculated with the same spatial resolution than the native images. The mean value of R2* was calculated in various regions of interest, all determined by the same experimental radiologist. […]
# [3] = test system: intracellular iron pools of macrophages, hepatocytes, and cardiomyocyte cell lines; settings: living cells, fluorescence probes; cited from earlier work
smiles,measurement,setting,value
"Cc1c(O)c(=O)ccn1C [Deferiprone, 3-hydroxy-1,2-dimethylpyridin-4-one]",peak concentration relative to thalassemia patients treated with 25 mg/kg three times daily,[1],about three times
same,deferiprone detectable in serum for up to,[1]; HPLC,up to 7 h
same,deferiprone detectable in serum from (time after dosing),[1]; HPLC,≥ 0.5 h
same,half-life,"[1]; both sexes, cynomolgus monkey, serum, oral, range in individuals",0.35 to 2.39 h
same,relaxation rate R2* in dentate nuclei,[2]; after one month,16.6 ± 1.3 s⁻¹
same,relaxation rate R2* in dentate nuclei,[2]; after two months,15.9 ± 0.6 s⁻¹
same,access to intracellular iron pools / chelation,[3],readily enter most cells and efficiently reach the major intracellular sites of iron accumulation
